Reference: PubChem BioAssay AID248 (DTP/NCI, 2004)
Several values for one entry are separate records, joined by “and”; a condition that tells them apart may be missing. Identical values can stand only once. Toxic doses and inconclusive results are not listed. Rule as the data show it: active = T/C of 150% or more; inactive = T/C below 125%.

System: L1210 leukemia ip in BDF1 mice, survival T/C
Assay: NCI In Vivo Anticancer Drug Screen. Data for tumor model L1210 Leukemia (intraperitoneal) in B6D2F1 (BDF1) mice
Details: endpoint: mean survival time, higher = longer survival
Summary of the method: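 Read-out is survival time, reported as the treated-group measurement over the vehicle-control measurement.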

[1] = dose: 100.0 mg/kg/injection, schedule: Q01DX009 (ip), vehicle: saline with Tween-80
[2] = dose: 100.0 mg/kg/injection, schedule: Q04DX003 (ip), vehicle: saline with Tween-80
[3] = dose: 200.0 mg/kg/injection, schedule: Q01DX009 (ip), vehicle: saline with Tween-80
[4] = dose: 200.0 mg/kg/injection, schedule: Q04DX003 (ip), vehicle: saline with Tween-80
[5] = dose: 400.0 mg/kg/injection, schedule: Q01DX009 (ip), vehicle: saline with Tween-80
[6] = dose: 400.0 mg/kg/injection, schedule: Q04DX003 (ip), vehicle: saline with Tween-80
[7] = dose: 75.0 mg/kg/injection, schedule: Q01DX001 (ip), vehicle: saline
[8] = dose: 150.0 mg/kg/injection, schedule: Q01DX001 (ip), vehicle: saline
[9] = dose: 300.0 mg/kg/injection, schedule: Q01DX001 (ip), vehicle: saline
[10] = dose: 100.0 mg/kg/injection, schedule: Q01DX001 (ip), vehicle: saline
[11] = dose: 200.0 mg/kg/injection, schedule: Q01DX001 (ip), vehicle: saline
[12] = dose: 400.0 mg/kg/injection, schedule: Q01DX001 (ip), vehicle: saline
[13] = dose: 100.0 mg/kg/injection, schedule: Q04DX002 (ip), vehicle: Klucel (hydroxypropylcellulose) (HPC)
[14] = dose: 200.0 mg/kg/injection, schedule: Q04DX002 (ip), vehicle: Klucel (hydroxypropylcellulose) (HPC)
[15] = dose: 400.0 mg/kg/injection, schedule: Q04DX002 (ip), vehicle: Klucel (hydroxypropylcellulose) (HPC)
[16] = dose: 100.0 mg/kg/injection, schedule: Q01DX009 (ip), vehicle: Klucel (hydroxypropylcellulose) (HPC)
[17] = dose: 200.0 mg/kg/injection, schedule: Q01DX009 (ip), vehicle: Klucel (hydroxypropylcellulose) (HPC)

Measured: T/C

O=[N+]([O-])c1ccc(Oc2cc(Cl)c(Cl)cc2Cl)nc1
inactive: [1] 101 % of control | [2] 104 % of control | [3] 103 % of control | [4] 102 % of control | [5] 100 % of control | [6] 106 % of control

CN1C2CCCCC1C1CCCCC2N1C
inactive: [7] 105 % of control | [8] 94 % of control | [9] 98 % of control

CC(C)CCC[C@@H](C)[C@H]1CC[C@H]2[C@@H]3CC[C@H]4C[C@H](NC(=O)N(CCCl)N=O)CC[C@]4(C)[C@H]3CC[C@]12C
inactive: dose: 10.0 mg/kg/injection, schedule: Q01DX001 (ip), vehicle: other 103 % of control | dose: 23.0 mg/kg/injection, schedule: Q01DX001 (ip), vehicle: other 95 % of control | dose: 46.0 mg/kg/injection, schedule: Q01DX001 (ip), vehicle: other 104 % of control | dose: 93.0 mg/kg/injection, schedule: Q01DX001 (ip), vehicle: other 103 % of control | dose: 187.0 mg/kg/injection, schedule: Q01DX001 (ip), vehicle: other 103 % of control | dose: 375.0 mg/kg/injection, schedule: Q01DX001 (ip), vehicle: other 110 % of control | dose: 500.0 mg/kg/injection, schedule: Q01DX001 (ip), vehicle: other 104 % of control | dose: 1000.0 mg/kg/injection, schedule: Q01DX001 (ip), vehicle: other 119 % of control

CN(C)c1nc2nc[nH]c2c(=S)n1C
inactive: [10] 97 % of control | [11] 97 % of control | [12] 95 % of control

Nc1nc(-c2cc(Br)ccc2N=NN2CCCCC2)nc2ccc(Br)cc12
inactive: [13] 86 % of control | [14] 89 % of control | [15] 99 % of control

CC1=C2/C=c3\[nH]/c(c(CCC(=O)NCCN)c3C)=C\c3[nH]c(c(C)c3CCC(=O)NCCN)CC3NC(CC(=N2)C1=NCCN)C(C)=C3NCCN (centres undefined)
inactive: dose: 37.5 mg/kg/injection, schedule: Q01DX001 (ip), vehicle: saline 97 % of control | [7] 97 % of control and 111 % of control | [8] 106 % of control and 120 % of control | [9] 102 % of control

C=C1C(=O)OC2CC3(C)OC3C3OC3C3=CC(OC3=O)C12 (centres undefined)
inactive: dose: 5.0 mg/kg/injection, schedule: Q01DX001 (ip), vehicle: carboxymethylcellulose (CMC) 112 % of control

CC(NC(=O)OCc1ccccc1)C(=O)NC(CCC(=O)OCc1ccccc1)C(=O)OCc1ccccc1 (centres undefined)
inactive: [2] 93 % of control | [4] 92 % of control | [6] 92 % of control

CCCC[Si](C)(C)C
inactive: dose: 100.0 mg/kg/injection, schedule: Q01DX001 (ip), vehicle: carboxymethylcellulose (CMC) 103 % of control | dose: 200.0 mg/kg/injection, schedule: Q01DX001 (ip), vehicle: carboxymethylcellulose (CMC) 95 % of control | dose: 400.0 mg/kg/injection, schedule: Q01DX001 (ip), vehicle: carboxymethylcellulose (CMC) 103 % of control

Cc1nc(N)c([N+](=O)[O-])cc1[N+](=O)[O-]
inactive: dose: 100.0 mg/kg/injection, schedule: Q01DX009 (ip), vehicle: acetone 100 % of control

C/C(=N\N)c1ccc(Cl)cc1
inactive: dose: 6.25 mg/kg/injection, schedule: Q01DX009 (ip), vehicle: saline with Tween-80 93 % of control | dose: 12.5 mg/kg/injection, schedule: Q01DX009 (ip), vehicle: saline with Tween-80 101 % of control | dose: 25.0 mg/kg/injection, schedule: Q01DX009 (ip), vehicle: saline with Tween-80 96 % of control

Cc1ccc(S(=O)(=O)/C=C(/I)C(=O)c2ccccc2)cc1
inactive: [10] 95 % of control | [11] 93 % of control | [12] 95 % of control

NNC(=O)c1ccc(Cl)c(Cl)c1
inactive: dose: 100.0 mg/kg/injection, schedule: Q01DX001 (ip), vehicle: Klucel (hydroxypropylcellulose) (HPC) 104 % of control | dose: 200.0 mg/kg/injection, schedule: Q01DX001 (ip), vehicle: Klucel (hydroxypropylcellulose) (HPC) 117 % of control | dose: 400.0 mg/kg/injection, schedule: Q01DX001 (ip), vehicle: Klucel (hydroxypropylcellulose) (HPC) 112 % of control

Cc1ccc(OCC(N)=O)cc1
inactive: dose: 50.0 mg/kg/injection, schedule: Q04DX002 (ip), vehicle: Klucel (hydroxypropylcellulose) (HPC) 100 % of control | [13] 113 % of control | [14] 103 % of control

O=C1CCCN(Cc2ccccc2)C(=O)N1
inactive: [1] 97 % of control | [2] 103 % of control | [3] 97 % of control | [4] 103 % of control | [5] 97 % of control | [6] 103 % of control

CC1(C)C2CCC1(C)C(C(=O)C(F)(F)F)C2=O.CC1(C)C2CCC1(C)C(C(=O)C(F)(F)F)C2=O.CC1(C)C2CCC1(C)C(C(=O)C(F)(F)F)C2=O.[Eu] (centres undefined)
inactive: dose: 50.0 mg/kg/injection, schedule: Q04DX002 (ip), vehicle: saline with Tween-80 105 % of control | dose: 100.0 mg/kg/injection, schedule: Q04DX002 (ip), vehicle: saline with Tween-80 94 % of control | dose: 200.0 mg/kg/injection, schedule: Q04DX002 (ip), vehicle: saline with Tween-80 102 % of control

COc1ccc2c(=O)c(C)c(C)oc2c1CN1CCOCC1
inactive: dose: 0.78 mg/kg/injection, schedule: Q01DX009 (ip), vehicle: saline 94 % of control | dose: 1.56 mg/kg/injection, schedule: Q01DX009 (ip), vehicle: saline 98 % of control | dose: 3.12 mg/kg/injection, schedule: Q01DX009 (ip), vehicle: saline 107 % of control | dose: 6.25 mg/kg/injection, schedule: Q01DX009 (ip), vehicle: saline 100 % of control

O=C1/C(=C\c2ccc([N+](=O)[O-])cc2)CS(=O)(=O)C/C1=C/c1ccc([N+](=O)[O-])cc1
inactive: dose: 50.0 mg/kg/injection, schedule: Q01DX009 (ip), vehicle: Klucel (hydroxypropylcellulose) (HPC) 97 % of control | [10] 97 % of control | [16] 93 % of control | [11] 94 % of control | [17] 92 % of control

Cc1ccc(N=Nc2ccc(C)cc2NC(=O)c2c(Br)c(Br)c(Br)c(Br)c2C(=O)O)cc1
inactive: [1] 93 % of control | [3] 93 % of control

O=[N+]([O-])c1cc(CCl)ccc1CCl
inactive: dose: 50.0 mg/kg/injection, schedule: Q04DX003 (ip), vehicle: Klucel (hydroxypropylcellulose) (HPC) 86 % of control | dose: 100.0 mg/kg/injection, schedule: Q04DX003 (ip), vehicle: Klucel (hydroxypropylcellulose) (HPC) 92 % of control | dose: 200.0 mg/kg/injection, schedule: Q04DX003 (ip), vehicle: Klucel (hydroxypropylcellulose) (HPC) 98 % of control

C=COC(=O)NC(C(=O)O)C(C)CC (centres undefined)
inactive: [7] 111 % of control | [8] 103 % of control

CCCCCC[CH2][Sn]([CH2]CCCCCC)([CH2]CCCCCC)[CH2]CCCCCC
inactive: [16] 103 % of control | [17] 101 % of control | dose: 400.0 mg/kg/injection, schedule: Q01DX009 (ip), vehicle: Klucel (hydroxypropylcellulose) (HPC) 101 % of control

C[C@H](CCC(=O)O)[C@H]1CC[C@H]2[C@@H]3CCC4=C(O)C(=O)CC[C@]4(C)[C@H]3CC(=O)[C@]12C
inactive: dose: 100.0 mg/kg/injection, schedule: Q01DX001 (sc), vehicle: steriod suspending solution 101 % of control | dose: 200.0 mg/kg/injection, schedule: Q01DX001 (sc), vehicle: steriod suspending solution 98 % of control | dose: 400.0 mg/kg/injection, schedule: Q01DX001 (sc), vehicle: steriod suspending solution 103 % of control

c1ccc(-c2cc(-c3ccccc3)[s+]s2)cc1
inactive: dose: 50.0 mg/kg/injection, schedule: Q01DX009 (ip), vehicle: saline with Tween-80 100 % of control | [1] 90 % of control | [2] 113 % of control | [4] 92 % of control | [6] 88 % of control

O=C1OCCN1CCO
inactive: dose: 100.0 mg/kg/injection, schedule: Q04DX003 (ip), vehicle: saline 97 % of control | dose: 200.0 mg/kg/injection, schedule: Q04DX003 (ip), vehicle: saline 102 % of control | dose: 400.0 mg/kg/injection, schedule: Q04DX003 (ip), vehicle: saline 108 % of control

CCOC(=O)CNC(=O)Oc1cccc2cccnc12
inactive: [1] 103 % of control | [3] 101 % of control

CSc1ncc2c(Cl)nn(C)c2n1
inactive: dose: 37.5 mg/kg/injection, schedule: Q01DX001 (ip), vehicle: Klucel (hydroxypropylcellulose) (HPC) 94 % of control | dose: 75.0 mg/kg/injection, schedule: Q01DX001 (ip), vehicle: Klucel (hydroxypropylcellulose) (HPC) 92 % of control | dose: 150.0 mg/kg/injection, schedule: Q01DX001 (ip), vehicle: Klucel (hydroxypropylcellulose) (HPC) 90 % of control

O=C1CCCCCCCCCCCCCCCO1
inactive: [13] 90 % of control | [14] 93 % of control | [15] 93 % of control
